# “Also recorded” adds a separate entry of the source.
# Tests used:
# Format in all cases: cell-based, human
# BRD4 [1] = assay: ChIP-seq and ChIP-qPCR of BRD4 binding in C4-2 cells; conditions: control and SPOP-F133V C4-2 cells; JQ1 1 μM, 24 hours
# Method: ChIP was performed as described elsewhere (Boyer et al., Cell, 122:947-956 (2005)). ChIP-seq libraries were prepared using the methods as described elsewhere (Boyer et al., Cell, 122:947-956 (2005)), and high throughput sequencing was performed using the Illumina HiSeq2000 platforms. The data were analyzed using the following pipeline: ChIP-seq raw reads were aligned to the human reference genome (GRCh37/hg19) using Bowtie2 (2.2.9), and reads mapped to one or two locations were kept for further analysis. Peak calling was performed by MACS2 (2.1.1) with p-value threshold of 1e-5. BigWig files were generated for visualization with the UCSC genome browser or IGV. GREAT (bejerano.stanford.edu/great/public/html/) was used to assign peaks to their potential target genes (a peak-gene association was determined if the peak fell into 2 kb region centering on the transcription start site of the gene). The common BRD4 target genes induced by SPOP F133V and HA-BRD4 expression were determined independently in each of two biological repeat experiments. Raw and processed data were deposited into NCBI Gene Expression Omnibus with accession number GSE88872.
# For ChIP-qPCR experiments, DNAs pulled down by antibodies or non-specific IgG were amplified by real-time PCR. […]
# 22Rv1 cells = assay: Cell proliferation assay (MTS) and trypan blue assay; conditions: JQ1 0.25 μM every other day
# Method: (§1) CellTiter 96® AQueous One Solution Cell Proliferation Assay (MTS) (Promega) was used to measure cell growth according to the manufacturer's instructions. Briefly, cells were plated in 96-well plates at a density of 2,000 cells per well. At the indicated times, 20 μL of Cell Titer 96R Aqueous One Solution Reagent was added to medium. After incubating for 1 hour at 37° C. in the cell incubator, cell growth was measured in a microplate reader at 490 nm.
# (§2) Trypan blue assay was performed to measure cell growth according to the manufacturer's instructions. Briefly, cells were plated in 6-well plates at a density of about 5×10^4 to about 1×10^5 cells per well. At the indicated time points, cells were trypsinized and suspended in 1 mL 1×PBS. 100 μL cells and 100 μL trypan blue solution (Sigma-Aldrich) were mixed, and the number of viable cells was measured using the Bio-Rad automated cell counter.
# C4-2 cells = assay: as above
# Method: as §1, §2
# Cell proliferation was measured by using the MTS assay (Promega). Prostate cancer cells (2,000 per well) were seeded in 96-well plates with 100 μL of culture medium. Each well was added with 20 μL of CellTiter 96R AQueous One Solution Reagent (Promega) and absorbance was measured in a microplate reader at 490 nm.
# BRD4 [2] = assay: Western blot of BRD4 protein, ubiquitination and half-life in DU145 cells; conditions: DU145 cells; JQ1, 24 hours
# Method: Co-Immunoprecipitation (Co-IP) Cells were harvested and lysed by IP buffer (50 mM Tris-HCl, pH 7.4, 150 mM NaCl, 1% Triton X-100, 1% sodium deoxycholate and 1% protease inhibitor cocktails) on ice for more than 15 minutes. Cell lysate was centrifuged for 15 minutes at 13,000 rpm at 4° C., and the supernatant was incubated with primary antibodies and protein A/G agarose beads (Thermo Fisher Scientific) with rotating at 4° C. overnight. The next day, the pellet was washed at least six times with 1×IP buffer on ice, and then subjected to western blotting analysis. Western Blotting
# Cells were harvested and lysed by IP buffer (50 mM Tris-HCl, pH 7.4, 150 mM NaCl, 1% Triton X-100, 1% sodium deoxycholate and 1% protease inhibitor cocktails) on ice for more than 15 minutes. Cell lysate was centrifuged for 15 minutes at 13,000 rpm at 4° C., and the supernatant was quantified by BCA protein quantification assay. Equal amounts of protein sample were added into 4× sample buffer and boiled for 5 minutes. The sample was subjected to SDS-PAGE analysis and transferred to nitrocellulose membrane. The membrane was blocked by 5% milk for 1 hour at room temperature and incubated with primary antibody at 4° C. overnight. The next day, the membrane was washed three times with 1×TBST and incubated with horseradish peroxidase-conjugated secondary antibodies for 1 hour at room temperature. The protein bands were visualized by SuperSignal West Pico Stable Peroxide Solution (Thermo Fisher Scientific).
# [3] = test system: prostate cancer patient-derived organoid lines; assay: Organoid cell viability assay (2D and 3D); conditions: SPOP W131R-expressing organoid compared to two SPOP WT counterparts; 2D and 3D growth
# Method: Organoid cells were obtained from Dr. Yu Chen from MSKCC and cultured according to the methodology as described elsewhere (Drost et al., Nat. Protoc., 11:347-358 (2016)). In brief, organoid cells were imbedded in 40 μL Matrigel each drop and cultured in FBS free DMEM/F12 medium supplied with several growth factors. Cell viability assays were conducted by plating 2,000 organoid cells per well of a collagen coated 96-well cell culture plate in […] media with vehicle (DMSO) control or JQ1 (0.05˜1 μM). Viable cells were counted by using a CellTiter-Glo (Promega) Luminescent Cell Viability Assay Kit.
compound,measurement,setting,value
Cc1sc2c(c1C)C(c1ccc(Cl)cc1)=N[C@@H](CC(=O)OC(C)(C)C)c1nnc(C)n1-2 [JQ1],BRD4 binding in the AR gene promoter,BRD4 [1],largely decreased
same,BRD4 binding in the MYC gene enhancer,BRD4 [1],substantial reduction
same,cell growth,22Rv1 cells; EV-expressing 22Rv1 cells,inhibited growth
same,effect on cell growth,22Rv1 cells; SPOP-F133V-expressing 22Rv1 cells,largely impeded
same,sensitivity of cell growth to JQ1,"C4-2 cells; BRD4 knockout C4-2 cells with BRD2/3 largely depleted, JQ1 up to 500 nM, 24 hours",highly resistant
same,sensitivity of cell growth to JQ1,"C4-2 cells; SPOP F133V-expressing C4-2 cells, JQ1 2 μM, MTS",JQ1 resistance
same,effect on cell growth,"C4-2 cells; SPOP-F133V-expressing C4-2 cells, JQ1 0.25 μM every other day",largely impeded
same,effect on cell growth,"C4-2 cells; SPOP-knockdown C4-2 cells, JQ1 0.25 μM every other day",largely attenuated
same,cell growth,"C4-2 cells; control (shC / EV) C4-2 cells, JQ1 0.25 μM every other day",robustly inhibited; also recorded: inhibited growth
same,BRD4 polyubiquitination,BRD4 [2],markedly inhibited
same,sensitivity of organoid to JQ1,[3],resistant

# — patent US12290521B2, “Methods and materials for identifying and treating BET inhibitor-resistant cancers” (Mayo Foundation for Medical Education and Research, priority 2018, dated 2025)
